Results published in patent publication US8076449B2, “Therapeutic agents of colivelin for neurodegenerative diseases” (Tomohiro Chiba, priority 2004, dated 2011).
Entries after “also recorded” stand apart in the source; their conditions may differ. Ends that are not written are not given here.

Key:
[1] = system: F11 cells transformed with G93R-SOD1; test: Neuronal cell death induced by G93R-SOD1 gene, Trypan blue exclusion assay; type: cell-based, rat/mouse hybrid
Description: (§1) F11 cell, the hybrid cell of rat embryonic day 13 (E13) primary cultured neuronal cell with mouse neuroblastoma NTG18 cell, was cultured in Ham's F-12 medium (Life Technologies, Gaithersburg, Md.) containing 18% FBS (Hyclone, Logan, Utah) and antibiotics as previously reported (Platika D, et al., 1985, Proc Natl Acad Sci USA 82: 3499-3503; Yamatsuji T, et al., 1996, Science 272: 1349-1352; Huang P, et al., 2000, Mol Hum Reprod 6: 1069-1078; and Niikura T, et al., 2001, J Neuroscience, 21: 1902-1910).
(§2) (i) Test of Neuronal Cell Death Induced by M146L-PS1 or G93R-SOD1 Gene
The F11 cells (7×10^4 cells/well, 6-well plate, 12- to 16-hour culture in Ham's F-12 (18% FBS) medium) were transformed with M146L-PS1 or G93R-SOD1 gene by lipofection (0.5 μg of cDNA; 1 μl of LipofectAMINE; 2 μl of PLUS Reagent) under serum-free conditions for 3 hours and cultured for 2 hours in Ham's F-12 (18% FBS) medium. […] After 72 hours of the transformation, cell mortality was measured by Trypan blue exclusion assay as previously reported (Hashimoto Y, et al., 2001, J Neurosci 21: 9235-9245; and Hashimoto Y, et al, 2001, Proc Natl Acad Sci USA 98: 6336-6341).
ADNF has already been reported to protect neurons from toxicity caused by SOD1 mutations. […] After 72 hours of the transformation, cell mortality was measured by Trypan blue exclusion assay (FIG. 3).

[2] = system: F11 cells transformed with M146L-PS1; test: Neuronal cell death induced by M146L-PS1 gene, Trypan blue exclusion assay; type: cell-based, rat/mouse hybrid; conditions: M146L-PS1, 72 hours after transformation
Description: as §1, §2
The F11 cells (7×10^4 cells/well, 6-well plate, 12- to 16-hour culture in Ham's F-12 (18% FBS) medium) were transformed with M146L-PS1 or G93R-SOD1 gene by lipofection (0.5 μg of cDNA; 1 μl of LipofectAMINE; 2 μl of PLUS Reagent) under serum-free conditions for 3 hours and cultured for 2 hours in Ham's F-12 (18% FBS) medium. The medium was replaced by Ham's F-12 (10% FBS) in the presence or absence of varying concentrations (100 aM, 1 fM, 10 fM, 100 fM, 1 pM, 10 pM, 100 pM, 1 nM, 10 nM, or 100 nM) of colivelin or AGA-CBR-HNG17 peptides. After 72 hours of the transformation, cell mortality was measured by Trypan blue exclusion assay as previously reported (Hashimoto Y, et al., 2001, J Neurosci 21: 9235-9245; and Hashimoto Y, et al, 2001, Proc Natl Acad Sci USA 98: 6336-6341). […]

[3] = system: G93A-SOD1 Tg mice; test: Motor performance (rotarod), onset and survival test with ALS model animal, icv administration (Example 3); type: in vivo, mouse
Text: Transgenic (Tg) mice (hereinafter, referred to as “G93A-SOD1 Tg mice”) expressing human FALS-associated SOD1 mutant gene with a mutation (G93A) from Gly to Ala at 93 position are the best-established mouse model of ALS (Gurney M E, et al., 1994, Science 264: 1772-1775; and Gurney M E, et al., 1997, J Neurol Sci 152 Suppl 1: S67-73). The G93A-SOD1 Tg mice manifest symptoms quite similar to human ALS after normal birth and rapidly result in death in all cases. The G93A-SOD1 Tg mice, which have the onset of the regression of motor neurons similar clinically and pathologically to that in human ALS, have been known so far to be the most excellent model of ALS throughout the world and employed for identifying effective candidate drugs for ALS patients.
The model mice were used to confirm the in vivo effect of colivelin against neurotoxicity caused by G93A-SOD1.
The G93A-SOD1 Tg mice were purchased from Jackson Laboratories (Bar Harbor, Me.). The G93A-SOD1 Tg mice were kept as hemizygote mice by the mating thereof with C57BL/6J mice (CLEA Japan, Inc). The mice were raised in an SPF room (specific pathogen-free animal facility; 23±1° C., 55±5% humidity) in the 12-hour light/12-hour dark cycle (7:00 AM-7:00 PM). The mice were freely fed with gamma ray-irradiated Picolab Rodent Diet 20 (PMI Feeds Inc. St. Louis, Mo.) and sodium hyposulfite (5 ppm)-containing aseptic deionized distilled water.
The G93A-SOD1 Tg mice at 10 weeks of age were put under anesthesia by the intraperitoneal injection of 10% Nembutal (sodium pentobarbital; 60 mg/kg). A hole was made on the cranial bone with a drill on a sterotaxic surgery apparatus to aseptically transplant the C315GS-4 cannula system for mouse (Plastics One Inc., Roanoke, Va.) to the mouse left lateral ventricle. The cannula was fixed with a surgical adhesive and dental cement.
The mice at 80 days of age were divided at random to a saline (control)-administered group (n=7), 100 fmol colivelin-administered group (n=6), 10 pmol colivelin-administered group (n=7), 1 nmol colivelin-administered group (n=7), and 30 nmol ADNF-administered group (n=5). Until the end of the experiment, the control group received the intracerebroventricular (icv) injection of 3 μl of saline each day, while the colivelin-administered groups and the ADNF-administered group received the icy injection of 3 μl of colivelin (100 f mol, 10 pmol, or 1 nmol) and 3 μI of 30 nmol ADNF, respectively. In this context, colivelin and ADNF were separately dissolved in a saline for the injection. The injection was performed with the cannula in C315IS-4 connected to Hamilton syringe through a cannula tube (C232, PESO/Thin wall, Plastic One).
The motor function (motor performance) was evaluated weekly with a rotarod (CLEA Japan Inc). After the cannulation, the mice were acclimated to the rotarod for 2 days. The mice were placed onto a rotating rod at a speed of 5 rpm, and the time for which each mouse could remain on the rod was automatically detected. The test was conducted according to the protocol wherein the test was completed as a score of 7 minutes if the mouse remained on the rod for 7 minutes (Li M, et al., 2000, Science 288: 335-339; and Kaspar B K, et al., 2003, Science 301: 839-842). Disease onset was defined as the first day when the mouse could not remain on the rotarod for 7 minutes.
Death was defined when the mouse was unable to right itself within 30 seconds after being placed on its back (Li M, et al., op. cit).

[4] = 100 fmol colivelin icv each day

PAGASRLLLLTGEIDLP [AGA-C8R-HNG17, Pro-Ala-Gly-Ala-Ser-Arg-Leu-Leu-Leu-Leu-Thr-Gly-Glu-Ile-Asp-Leu-Pro, reference compound]
neuroprotective effect on cell death induced by SOD1 mutant ([1]; varying concentrations 100 aM to 100 nM): could not protect; also recorded: not observed | concentration of complete protection against cell death induced by mutant PS1 [2]: 10 pM

SALLRSIPA [ADNF, reference compound]
mean survival days ([3]; 30 nmol ADNF icv each day): 145.0 days | time up to which motor function was maintained (rotarod) ([3]; 30 nmol ADNF icv each day): approximately 130 days

SALLRSIPAPAGASRLLLLTGEIDLP [colivelin]
concentration completely suppressing cell death induced by G93R-SOD1 ([1]; 72 hours after transformation): 1 pM | concentration completely suppressing cell death induced by mutant PS1 [2]: 100 fM | mean survival days ([3]; 10 pmol colivelin icv each day): 159.4 days | prolongation of life span ([3]; 10 pmol colivelin icv each day, versus control): 11.7% | delay of the disease onset ([3]; 1 nmol colivelin icv each day): approximately 17 day | mean survival days ([3]; 1 nmol colivelin icv each day): 156.7 days | protective action on motor function (rotarod) ([3]; 1 nmol colivelin icv each day): most potent protective action | mean survival days [3, 4]: 153.3 days | time of deterioration of motor function (rotarod) [3, 4]: approximately 120 days | recovery of motor function ([3]; experiments using ALS model mice (summary statement)): approximately 70%
